Measured values: ChEMBL document CHEMBL5634111, “Design, synthesis, and anti-respiratory syncytial virus potential of novel 3-(1,2,3-triazol-1-yl)furoxazine-fused benzimidazole derivatives” (Eur J Med Chem, 2023)

Columns and labels:
[1] = Selectivity index, ratio of CC50 for human HepG2 cells to EC50 for RSV infected in human HepG2 cells; assay type: toxicity, cell-based; details: read-out: Ratio CC50/EC50
[2] = system: Respiratory syncytial virus; assay: Antiviral activity against RSV infected in human HepG2 cells preincubated for 24 hrs followed by viral infection for 2 hrs and measured after 60 hrs by MTT assay; assay type: functional, organism-based
[3] = Cytotoxicity against human HepG2 cells measured after 24 hrs by MTT assay; assay type: toxicity, cell-based

`Brc1cc2nc3n(c2cc1Br)[C@H]1OC[C@H](n2cc(COc4ccccc4)nn2)[C@H]1OC3` showed a selectivity ratio [1] of 5.73, an EC50 [2] of 21.9 µM and a CC50 at 24 h [3] of 121 µM.
In the case of `NC(=O)c1ncn([C@@H]2O[C@H](CO)[C@@H](O)[C@H]2O)n1` [RIBAVIRIN], the selectivity ratio [1] is reported as 29.2, the EC50 [2] is reported as 8.41 µM and the CC50 at 24 h [3] is reported as 246 µM.
With `Cc1c(Br)cc2nc3n(c2c1Br)[C@H]1OC[C@H](n2cc(-c4ccccc4)nn2)[C@H]1OC3` the CC50 at 24 h [3] was 53.3 µM.
For `OCc1cn([C@H]2CO[C@H]3[C@@H]2OCc2nc4cc(Br)c(Br)cc4n23)nn1`, the CC50 at 24 h [3] was 104 µM.
`Brc1cc2nc3n(c2cc1Br)[C@H]1OC[C@H](n2cc(-c4ccccc4)nn2)[C@H]1OC3` gave a CC50 at 24 h [3] of 63.6 µM.
For `CCCCCCc1cn([C@H]2CO[C@H]3[C@@H]2OCc2nc4cc(Br)c(Br)cc4n23)nn1`, the CC50 at 24 h [3] was 52.3 µM.
Molecule `OCCCc1cn([C@H]2CO[C@H]3[C@@H]2OCc2nc4cc(Br)c(Br)cc4n23)nn1` has a CC50 at 24 h [3] of 150 µM.
Work on `CCCCCc1cn([C@H]2CO[C@H]3[C@@H]2OCc2nc4cc(Br)c(Br)cc4n23)nn1` yielded a CC50 at 24 h [3] of 237 µM.
Molecule `Brc1cc2nc3n(c2cc1Br)[C@H]1OC[C@H](n2cc(C4CC4)nn2)[C@H]1OC3` has a selectivity ratio [1] of 6.39, an EC50 [2] of 6.26 µM and a CC50 at 24 h [3] of 40 µM.
With `Cc1cn([C@H]2CO[C@H]3[C@@H]2OCc2nc4cc(Br)c(C)c(Br)c4n23)nn1` the selectivity ratio [1] was 6.68, the EC50 [2] was 14.2 µM and the CC50 at 24 h [3] was 94.6 µM.
For `CCOC(=O)c1cn([C@H]2CO[C@H]3[C@@H]2OCc2nc4cc(Br)c(Br)cc4n23)nn1`, the CC50 at 24 h [3] was 26.9 µM.
`OCCc1cn([C@H]2CO[C@H]3[C@@H]2OCc2nc4cc(Br)c(Br)cc4n23)nn1` showed a CC50 at 24 h [3] of 70.1 µM.
